These are literature values, as cited in patent publication US11351128B1, “Pharmaceutical compositions and methods of administration” (priority 2021, dated 2022).

Molecules are shown by their SMILES.

As for `CCN(CC)C(=S)SSC(=S)N(CC)CC` [Disulfiram, tetraethyldisulfane-carbothioamide or 1-(diethylthiocarbamoyl-disulfanyl)-N,N-diethyl-methanethioamide], the “soluble in water to the extent of” value is reported as “about 20 mg in 100 ml”.
